Measurements from patent US9707269B2, “Sugar compositions for treating hemophilia A and/or von Willebrand disease” (CSL Behring GmbH, priority 2012, dated 2017).
“Also recorded” adds a separate entry of the source.

Experiments:
rhASGPR [1] = molecular target: T1, rhASGPR (Homo sapiens, UniProt P07306); assay: SPR inhibition of ASF binding to rhASGPR by monosaccharides; conditions: in the presence of the monosaccharide, FIG. 11
T1 construct: The extracellular domains of receptor proteins were acquired from R&D Systems (Wiesbaden, Germany); purchased R&D Systems (Wiesbaden, Germany)
T1 sequence (P07306 62-291 limits assumed): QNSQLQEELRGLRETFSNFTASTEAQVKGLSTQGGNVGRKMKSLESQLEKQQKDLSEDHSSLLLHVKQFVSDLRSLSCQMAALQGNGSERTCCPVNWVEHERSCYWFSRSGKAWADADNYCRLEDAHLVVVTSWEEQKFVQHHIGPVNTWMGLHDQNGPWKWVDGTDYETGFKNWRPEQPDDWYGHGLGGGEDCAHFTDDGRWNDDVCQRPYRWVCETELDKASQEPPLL
Method: (§1) SPR technology (Biacore T200, GE Healthcare Biosciences, Uppsala, Sweden) was applied to evaluate mechanisms of realtime biomolecular interactions between VWF, receptor-blocking agents and clearance receptor candidates. The interaction experiments were performed at a flow cell temperature of +25° C. by applying running buffer containing 10 mM HEPES, 150 mM NaCl, 5 mM CaCl2 and 0.05% Tween-20 at pH 7.4, which was also used as sample dilution buffer. Reagents and buffer stock solutions were purchased from GE Healthcare Biosciences (Uppsala, Sweden). The extracellular domains of receptor proteins were acquired from R&D Systems (Wiesbaden, Germany). The ligands were captured on Series S Sensor […] pretreated according to the manufacturer's instructions. The receptor proteins were covalently immobilized through free amine groups to the carboxymethylated dextran matrix by applying the amine coupling kit according to the manufacturer protocol. A blank flow cell without immobilized protein was included as a reference surface on the chip for bulk shift and nonspecific binding changes.
(§2) Increasing concentrations of both ASF and fetuin ranging from 10,240 to 10 nM were prepared as a 2 fold serial dilution series in running buffer and sequentially injected across the chip surface at 25 μL/min in order to characterize protein-ligand interaction. […]
Kinetic data were analyzed using Biacore T200 Evaluation Software Version 1.0 (GE Healthcare Biosciences, Uppsala, Sweden). An interaction of the analyte with the ligand was detected by an increase in accumulating mass and specific binding was identified by subtracting the binding response recorded from the control surface, followed by subtracting an average of the buffer blank injections. A report point was positioned 20 seconds after the end of sample injection and was evaluated as representative for a stable protein-ligand interaction, which was of interest. […] Furthermore, the response was calculated relative to the baseline in each case. […]

[2] = test system: clearance receptor candidates; assay: Interaction of pd VWF multimers with clearance receptor candidates and its inhibition (Example 10); type: binding; conditions: example without data; for inhibition of binding of pd VWF multimers to clearance receptor candidates: in the presence of ASF or monosaccharides
Text: According to Example 9, pd VWF multimers interact with clearance receptor candidates mentioned earlier. In addition, binding is inhibited in the presence of ASF or monosaccharides such as galactose, fucose and N-acetylgalactosamine.

clearance receptors = assay: Inhibition of pd VWF monomer interaction with clearance receptors by monosaccharides (Example 8); type: binding; conditions: in the presence of monosaccharides; example without data
Text: According to example 7, the interaction of pd VWF monomers with clearance receptors mentioned earlier is inhibited in the in the presence of monosaccharides such as galactose, fucose and N-acetylgalactosamine.

rhCLEC10A = molecular target: T2, rhCLEC10A (Homo sapiens, UniProt Q8IUN9); assay: SPR binding to immobilized clearance receptor rhCLEC10A; conditions: 25 °C, 5 mM CaCl2, pH 7.4, FIGS. 9 and 10
T2 construct: The extracellular domains of receptor proteins were acquired from R&D Systems (Wiesbaden, Germany); purchased R&D Systems (Wiesbaden, Germany)
T2 sequence (Q8IUN9 61-316 limits assumed): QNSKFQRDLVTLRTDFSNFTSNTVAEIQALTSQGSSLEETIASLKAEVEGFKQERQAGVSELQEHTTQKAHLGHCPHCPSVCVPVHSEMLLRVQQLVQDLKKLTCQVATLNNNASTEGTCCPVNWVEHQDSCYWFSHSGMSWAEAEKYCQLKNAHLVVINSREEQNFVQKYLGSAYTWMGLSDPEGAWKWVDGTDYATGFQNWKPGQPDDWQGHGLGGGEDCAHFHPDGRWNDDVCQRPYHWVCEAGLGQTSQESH
Method: as §1, §2
(§3) Kinetic data were analyzed using Biacore T200 Evaluation Software Version 1.0 (GE Healthcare Biosciences, Uppsala, Sweden). An interaction of the analyte with the ligand was detected by an increase in accumulating mass and specific binding was identified by subtracting the binding response recorded from the control surface, followed by subtracting an average of the buffer blank injections. A report point was positioned 20 seconds after the end of sample injection and was evaluated as representative for a stable protein-ligand interaction, which was of interest. […] Furthermore, the response was calculated relative to the baseline in each case.

rhSCARA5 = molecular target: T3, rhSCARA5 (Homo sapiens, UniProt Q6ZMJ2); assay: SPR binding to immobilized clearance receptor rhSCARA5; conditions: 25 °C, 5 mM CaCl2, pH 7.4, FIGS. 9 and 10
T3 construct: The extracellular domains of receptor proteins were acquired from R&D Systems (Wiesbaden, Germany); purchased R&D Systems (Wiesbaden, Germany)
Method: as §1, §2, §3

rmCLEC4F = molecular target: T4, rmCLEC4F (Mus musculus, UniProt P70194); assay: SPR binding to immobilized clearance receptor rmCLEC4F; conditions: 25 °C, 5 mM CaCl2, pH 7.4, FIGS. 9 and 10
T4 construct: The extracellular domains of receptor proteins were acquired from R&D Systems (Wiesbaden, Germany); purchased R&D Systems (Wiesbaden, Germany)
T4 sequence (P70194 70-548 limits assumed): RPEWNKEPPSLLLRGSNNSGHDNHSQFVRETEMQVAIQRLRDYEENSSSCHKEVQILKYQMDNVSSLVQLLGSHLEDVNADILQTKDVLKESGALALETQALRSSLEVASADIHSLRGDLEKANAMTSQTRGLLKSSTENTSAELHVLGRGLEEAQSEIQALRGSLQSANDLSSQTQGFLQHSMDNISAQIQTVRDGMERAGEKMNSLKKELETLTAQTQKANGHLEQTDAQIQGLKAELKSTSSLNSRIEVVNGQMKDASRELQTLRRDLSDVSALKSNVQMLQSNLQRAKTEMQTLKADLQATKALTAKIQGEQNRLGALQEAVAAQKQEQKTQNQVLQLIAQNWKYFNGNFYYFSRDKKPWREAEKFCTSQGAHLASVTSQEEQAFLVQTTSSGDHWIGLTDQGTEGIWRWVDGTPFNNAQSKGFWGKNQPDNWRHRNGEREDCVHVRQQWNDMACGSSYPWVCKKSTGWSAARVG
Method: as §1, §2, §3

rhCLEC4M = molecular target: T5, rhCLEC4M (Homo sapiens, UniProt Q9H2X3); assay: SPR binding to immobilized clearance receptor rhCLEC4M; conditions: 25 °C, 5 mM CaCl2, pH 7.4, FIGS. 9 and 10
T5 construct: The extracellular domains of receptor proteins were acquired from R&D Systems (Wiesbaden, Germany); purchased R&D Systems (Wiesbaden, Germany)
T5 sequence (Q9H2X3 71-399 limits assumed): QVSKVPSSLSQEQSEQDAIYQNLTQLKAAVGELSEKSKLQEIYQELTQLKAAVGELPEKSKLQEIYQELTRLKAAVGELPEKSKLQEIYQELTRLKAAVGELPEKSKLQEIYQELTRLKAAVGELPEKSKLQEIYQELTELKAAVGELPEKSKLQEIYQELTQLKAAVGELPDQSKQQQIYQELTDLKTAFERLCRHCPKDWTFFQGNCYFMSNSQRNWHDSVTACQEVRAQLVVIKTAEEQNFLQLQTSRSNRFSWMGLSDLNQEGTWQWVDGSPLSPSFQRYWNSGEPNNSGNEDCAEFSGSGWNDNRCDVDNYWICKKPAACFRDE
Method: as §1, §2, §3

rhCOLEC12 = molecular target: T6, rhCOLEC12 (Homo sapiens, UniProt Q5KU26); assay: SPR binding to immobilized clearance receptor rhCOLEC12; conditions: 25 °C, 5 mM CaCl2, pH 7.4, FIGS. 9 and 10
T6 construct: The extracellular domains of receptor proteins were acquired from R&D Systems (Wiesbaden, Germany); purchased R&D Systems (Wiesbaden, Germany)
Method: as §1, §2, §3

rhASGPR [3] = molecular target: T1, rhASGPR; assay: SPR binding to immobilized clearance receptor rhASGPR; conditions: 25 °C, 5 mM CaCl2, pH 7.4, FIGS. 9 and 10
Method: SPR technology (Biacore T200, GE Healthcare Biosciences, Uppsala, Sweden) was applied to evaluate mechanisms of realtime biomolecular interactions between VWF, receptor-blocking agents and clearance receptor candidates. The interaction experiments were performed at a flow cell temperature of +25° C. by applying running buffer containing 10 mM HEPES, 150 mM NaCl, 5 mM CaCl2 and 0.05% Tween-20 at pH 7.4, which was also used as sample dilution buffer. Reagents and buffer stock solutions were purchased from GE Healthcare Biosciences (Uppsala, Sweden). The extracellular domains of receptor proteins were acquired from R&D Systems (Wiesbaden, Germany). […]
as §3

rhASGPR [4] = molecular target: T1, rhASGPR; assay: Solid-phase binding assay of multimeric VWF with rhASGPR; conditions: VWF 100 to 3 μg/mL, 1 hour at +37 °C; FIG. 12
Text: In addition to SPR-based interaction analysis with monomeric VWF, the interaction of multimeric VWF (purified from human plasma) with rhASGPR was investigated by using solid-phase binding assay. In addition, asialo-VWF (plasma derived VWF after treatment with α(2-3,6,8)-neuraminidase) was used as control.
Lyophilized rhASGPR (R&D Systems, Wiesbaden, Germany) was reconstituted and diluted in 0.05 M carbonate-bicarbonate buffer at pH 9.6, adsorbed onto high-adsorption 96-microwell plates at RT overnight, and subsequently washed with washing buffer (50 mM Tris, 150 mM NaCl, 5 mM CaCl2 and 0.1% (w/v) Tween-20 at pH 7.4). Afterwards, the wells were incubated for 1 hour with blocking solution (50 mM Tris, 150 mM NaCl, 5 mM CaCl2 and 2.5% (w/v) BSA at pH 7.4) in order to block non-specific binding, and then washed with washing buffer again. […] After washing the wells, associated VWF was subsequently detected by a commercial polyclonal rabbit anti-human VWF antibody conjugated with HRP (DakoCytomation, Glostrup, Denmark) that had been previously diluted 1:16,000 in dilution buffer. […] The reaction was stopped with stopping solution POD (Siemens Healthcare Diagnostics, Marburg, Germany) and the substrate reaction was photometrically monitored by measuring the difference in wave lengths at 450 nm and 620 nm.

T3 sequence (Q6ZMJ2 82-495 limits assumed): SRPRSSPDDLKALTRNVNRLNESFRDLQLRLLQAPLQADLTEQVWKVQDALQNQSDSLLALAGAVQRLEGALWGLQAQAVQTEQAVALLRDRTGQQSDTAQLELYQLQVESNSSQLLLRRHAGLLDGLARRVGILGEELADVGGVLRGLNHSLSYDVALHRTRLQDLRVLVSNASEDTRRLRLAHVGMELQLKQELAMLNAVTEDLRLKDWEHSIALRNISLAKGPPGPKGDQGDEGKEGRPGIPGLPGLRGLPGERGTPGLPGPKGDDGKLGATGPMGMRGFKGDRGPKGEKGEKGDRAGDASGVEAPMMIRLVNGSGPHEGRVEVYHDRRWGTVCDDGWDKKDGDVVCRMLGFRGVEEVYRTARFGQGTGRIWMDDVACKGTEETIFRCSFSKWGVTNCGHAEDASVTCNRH
T6 sequence (Q5KU26 59-742 limits assumed): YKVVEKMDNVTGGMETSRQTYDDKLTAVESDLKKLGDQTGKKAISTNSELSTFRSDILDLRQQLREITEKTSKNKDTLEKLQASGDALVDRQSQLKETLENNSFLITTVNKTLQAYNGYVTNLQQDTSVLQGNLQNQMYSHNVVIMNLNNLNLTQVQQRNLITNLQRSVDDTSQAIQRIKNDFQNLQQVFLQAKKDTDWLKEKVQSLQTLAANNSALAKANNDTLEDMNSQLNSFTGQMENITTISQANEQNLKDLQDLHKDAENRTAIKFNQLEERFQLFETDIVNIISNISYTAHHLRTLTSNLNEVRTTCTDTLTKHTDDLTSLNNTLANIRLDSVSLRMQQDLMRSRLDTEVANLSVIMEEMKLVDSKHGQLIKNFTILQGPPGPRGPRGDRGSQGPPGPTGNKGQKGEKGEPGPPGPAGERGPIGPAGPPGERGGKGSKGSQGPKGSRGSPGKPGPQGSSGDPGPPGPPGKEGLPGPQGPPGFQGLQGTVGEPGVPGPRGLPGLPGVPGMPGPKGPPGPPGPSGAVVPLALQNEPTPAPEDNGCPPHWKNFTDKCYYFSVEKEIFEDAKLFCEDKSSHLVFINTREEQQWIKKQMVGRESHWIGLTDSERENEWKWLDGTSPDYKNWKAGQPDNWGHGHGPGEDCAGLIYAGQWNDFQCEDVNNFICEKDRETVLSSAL

Compound	inhibition of ASF binding to immobilized rhASGPR (rhASGPR [1])	inhibition of binding of pd VWF multimers to clearance receptor candidates [2]	inhibition of interaction of pd VWF monomers with clearance receptors (clearance receptors)	SPR binding to rhCLEC10A (rhCLEC10A)	SPR binding to rhSCARA5 (rhSCARA5)	SPR binding to rmCLEC4F (rmCLEC4F)	SPR binding to rhCLEC4M (rhCLEC4M)	SPR binding to rhCOLEC12 (rhCOLEC12)	further results
C[C@H](O)[C@@H](O)[C@@H](O)[C@H](O)C=O [Fuc, fucose]	decreased binding; also recorded: inhibited binding	inhibited	inhibited						
O=C[C@H](O)[C@@H](O)[C@@H](O)[C@H](O)CO [Gal, galactose]	decreased binding; also recorded: inhibited binding	inhibited	inhibited						
CC(=O)N[C@H]1C(O)O[C@H](CO)[C@H](O)[C@@H]1O (stereo partly drawn) [GalNac, N-acetylgalactosamine]	decreased binding; also recorded: inhibited binding	inhibited	inhibited						
VWF: purified VWF monomers (pd VWF after reduction with dithiothreitol and carboxymethylation with iodoacetamide)				bind efficiently	bind efficiently	bind efficiently	bind efficiently	bind efficiently	SPR binding to rhASGPR (rhASGPR [3]): bind efficiently
asialo-VWF multimers: plasma derived VWF after treatment with α(2-3,6,8)-neuraminidase, used as control									interaction with rhASGPR, solid-phase binding assay (rhASGPR [4]): interacted with rhASGPR
asialofetuin: bovine ASF (fetuin after the removal of terminal sialic acid residues), ligand blocking galactose receptors such as ASGPR		inhibited		bind efficiently	bind efficiently	bind efficiently	bind efficiently	bind efficiently	
fetuin [reference compound]				almost not	almost not	almost not	almost not	almost not	SPR binding to rhASGPR (rhASGPR [3]): almost not
plasma derived VWF multimers: multimeric VWF purified from human plasma, native glycosylation structure without modifications									interaction with rhASGPR, solid-phase binding assay (rhASGPR [4]): interacted with rhASGPR; interaction of pd VWF multimers with clearance receptor candidates ([2]; according to Example 9): interact
